Experimental data as given in patent US20230114728A1 (Venatorx Pharmaceuticals, Inc., priority 2019, published 2023).
In brackets after ≈: the same amount, converted by molar mass.

How the values were obtained:
[1] = molecular target: T1, E. coli K12 PBP3 (Escherichia coli, UniProt P0AD68); assay: biochemical; format: binding
T1 construct: made in house
How it was run: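 Fluorescence polarization (ex 490/em 520 nm) competition of inhibitors against Bocillin-FL at 0.1 μM, read up to 60 min. Final PBP levels: E. coli PBP3 1.5 μM; A. baumannii PBP2 2.5 μM, PBP3 0.2 μM in Tris pH 8.0/NaCl/glycerol/Tween 20; N. gonorrhoeae PBP2 […] in Hepes pH 8.0/NaCl/glycerol. EC50 = concentration halving PBP-bound Bocillin-FL.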

[2] = tested on: P. aeruginosa PAO1; assay: Broth microdilution MIC in CAMHB; format: cell-based; settings: Pseudomonas aeruginosa, MHB, read-out: Minimum Inhibitory Concentration, P. aeruginosa PAO1
Experimental: To determine the ability of test compounds to inhibit the growth of bacterial strains, classic cell based broth microdilution minimum inhibitory concentration (MIC) assays were employed. MIC assays are performed according to CLSI methods except where otherwise noted (CLSI, 2018 and CLSI, 2019). The reference type strain E. coli ATCC 25922; the wild-type parent strain E. coli AG100; the hyper-permeable E. coli 901C and E. coli D22; and the E. coli AG100A strain lacking the acrAB efflux pump encoding genes were used to determine the ability of the PBP inhibitors to penetrate the outer membrane of gram-negative bacteria and inhibit bacterial growth. […] The P. aeruginosa ATCC 27853 and A. baumannii ATCC 19606, along with the hyper-permeable P. aeruginosa ATCC 35151 and an engineered efflux pump-compromised strain of P. aeruginosa (ΔmexAB-oprM) were used to determine the ability of PBP inhibitors to penetrate the outer membrane of P. aeruginosa and A. baumannii and assess antibacterial activity against these important gram-negative organisms.
Briefly, cryo-preserved bacterial cultures of challenge strains are streaked for isolation on appropriate agar medium, in this case cation-adjusted Mueller Hinton agar. Following incubation to allow growth of the colonies, plates are sealed with parafilm and stored refrigerated for up to two weeks. For preparation of assay inoculum and to ensure low variability, at least 5 colonies are picked from the agar plates with an inoculating loop and aseptically transferred to a culture tube containing 3 mL of cation-adjusted Mueller Hinton broth (CAMHB). The broth culture is grown for 3-5 hours at 37° C. with shaking at 200 rpm. Meanwhile, 2-fold serial dilutions of test compounds are conducted in a 96-well plate with a final volume of 75 μL per well at 2-fold the final desired concentration. After the dilution plates are set up the growing cultures are then diluted in a cuvette containing CAMHB and the optical density is measured at 600 nm. The inoculum is diluted such that 75 μL of this culture in CAMHB results in a starting bacterial concentration of 2-8×10^5 CFU/mL when added to the dilution plates. The plates are incubated for 16-20 hours for Enterobacteriaceae and Pseudomonas and 20-24 hours for Acinetobacter at 37° C. The MIC values are read visually as the lowest concentration well with no bacterial growth.

[3] = tested on: E. coli D22; assay: Broth microdilution MIC in CAMHB; format: cell-based; settings: Escherichia coli; E. coli D22 (hyper-permeable); MHB; read-out: Minimum Inhibitory Concentration, E. coli D22
How it was run: (§1)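 Colonies from cation-adjusted Mueller Hinton agar are grown in broth (3-5 h, 37° C), adjusted by OD600, and added at 2-8×10^5 CFU/mL to 2-fold compound dilutions. After 16-20 h at 37° C, the lowest concentration without growth is taken as MIC.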

[4] = tested on: E. coli ATCC 25922; assay: Broth microdilution MIC in CAMHB; format: cell-based; settings: Escherichia coli, ATCC25922; E. coli ATCC 25922; MHB; read-out: Minimum Inhibitory Concentration, E. coli 25922
How it was run: as §1

[5] = tested on: P. aeruginosa ATCC 35151; assay: Broth microdilution MIC in CAMHB; format: cell-based; settings: Pseudomonas aeruginosa, ATCC35151; MHB; hyper-permeable strain; read-out: Minimum Inhibitory Concentration, P. aeruginosa ATCC 35151
How it was run: as §1

[6] = tested on: E. coli AG100A; assay: Broth microdilution MIC in CAMHB; format: cell-based; settings: Escherichia coli, read-out: Minimum Inhibitory Concentration, E. coli AG100A
How it was run: as §1

[7] = tested on: K. pneumoniae UMM producing SHV-5 and KPC-2; assay: Broth microdilution MIC in CAMHB; format: cell-based; settings: Klebsiella pneumoniae, read-out: Minimum Inhibitory Concentration, K. pneumoniae UMM
How it was run: as §1

[8] = tested on: A. baumannii ATCC 19606; assay: Broth microdilution MIC in CAMHB; format: cell-based; settings: Acinetobacter baumannii, ATCC19606; MHB; read-out: Minimum Inhibitory Concentration, A. baumannii ATCC 19606
How it was run: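 Per CLSI broth microdilution, colonies were grown 3-5 h at 37° C in cation-adjusted Mueller Hinton broth, then diluted to a starting inoculum of 2-8×10^5 CFU/mL against 2-fold serial compound dilutions. Plates were incubated 16-20 h at 37° C, and MIC was read visually as the lowest concentration with no growth.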

[9] = tested on: K. pneumoniae SI-117 producing VIM-1; assay: Broth microdilution MIC in CAMHB; format: cell-based; settings: Klebsiella pneumoniae, read-out: Minimum Inhibitory Concentration, K. pneumoniae SI-117
How it was run: as §1

[10] = tested on: K. pneumoniae 848844 producing SHV-11 and KPC-2; assay: Broth microdilution MIC in CAMHB; format: cell-based; settings: Klebsiella pneumoniae, read-out: Minimum Inhibitory Concentration, K. pneumoniae 848844
How it was run: as §1

[11] = tested on: P. aeruginosa (ΔmexAB-oprM); assay: Broth microdilution MIC in CAMHB; format: cell-based; settings: Pseudomonas aeruginosa, read-out: Minimum Inhibitory Concentration, P. aeruginosa ΔmexAB-OprM
How it was run: as §1

[12] = tested on: E. coli 901C; assay: Broth microdilution MIC in CAMHB; format: cell-based; settings: Escherichia coli; E. coli 901C (hyper-permeable); MHB; read-out: Minimum Inhibitory Concentration, E. coli 901C
How it was run: as §1

[13] = tested on: E. coli AG100; assay: Broth microdilution MIC in CAMHB; format: cell-based; settings: Escherichia coli; E. coli AG100 (wild-type parent); MHB; read-out: Minimum Inhibitory Concentration, E. coli AG100
How it was run: as §1

[14] = molecular target: T2, P. aeruginosa PBP3 (Pseudomonas aeruginosa, UniProt G3XD46); assay: Bocillin-FL fluorescence polarization competition binding assay, P. aeruginosa PBP3; settings: fluorescence polarization competition binding assay using Bocillin-FL
T2 construct: made in house
T2 sequence (G3XD46 whole entry): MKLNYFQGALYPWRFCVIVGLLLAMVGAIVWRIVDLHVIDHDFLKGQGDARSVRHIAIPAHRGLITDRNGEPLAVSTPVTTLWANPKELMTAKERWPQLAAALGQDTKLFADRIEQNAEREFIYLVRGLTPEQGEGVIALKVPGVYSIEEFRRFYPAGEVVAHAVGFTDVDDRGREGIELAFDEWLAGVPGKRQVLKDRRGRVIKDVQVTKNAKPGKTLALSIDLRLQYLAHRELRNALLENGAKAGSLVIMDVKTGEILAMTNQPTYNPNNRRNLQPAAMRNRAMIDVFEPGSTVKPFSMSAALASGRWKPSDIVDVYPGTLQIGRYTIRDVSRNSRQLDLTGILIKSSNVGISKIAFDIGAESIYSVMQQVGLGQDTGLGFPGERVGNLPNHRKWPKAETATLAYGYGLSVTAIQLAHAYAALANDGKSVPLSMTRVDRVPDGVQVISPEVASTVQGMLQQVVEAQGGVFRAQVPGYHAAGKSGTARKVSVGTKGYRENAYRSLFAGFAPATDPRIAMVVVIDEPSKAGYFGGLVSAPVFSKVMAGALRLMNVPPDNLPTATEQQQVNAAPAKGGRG
How it was run: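 Binding of boronic acid inhibitors to purified Pseudomonas aeruginosa (PA01) PBP3 was measured by fluorescence polarization competition with Bocillin-FL, a fluorescent penicillin V. Reactions of 80 μl contained 0.75 μM PBP3 and 0.1 μM Bocillin-FL in 50 mM Hepes (pH 8.0), 300 mM NaCl and 5% (v/v) glycerol, in black 384-well plates. FP (Excitation 490 nm, Emission 520 nm) was read for up to 60 minutes. EC50 is the concentration that halves PBP-bound Bocillin-FL.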

T1 sequence (P0AD68 1-577): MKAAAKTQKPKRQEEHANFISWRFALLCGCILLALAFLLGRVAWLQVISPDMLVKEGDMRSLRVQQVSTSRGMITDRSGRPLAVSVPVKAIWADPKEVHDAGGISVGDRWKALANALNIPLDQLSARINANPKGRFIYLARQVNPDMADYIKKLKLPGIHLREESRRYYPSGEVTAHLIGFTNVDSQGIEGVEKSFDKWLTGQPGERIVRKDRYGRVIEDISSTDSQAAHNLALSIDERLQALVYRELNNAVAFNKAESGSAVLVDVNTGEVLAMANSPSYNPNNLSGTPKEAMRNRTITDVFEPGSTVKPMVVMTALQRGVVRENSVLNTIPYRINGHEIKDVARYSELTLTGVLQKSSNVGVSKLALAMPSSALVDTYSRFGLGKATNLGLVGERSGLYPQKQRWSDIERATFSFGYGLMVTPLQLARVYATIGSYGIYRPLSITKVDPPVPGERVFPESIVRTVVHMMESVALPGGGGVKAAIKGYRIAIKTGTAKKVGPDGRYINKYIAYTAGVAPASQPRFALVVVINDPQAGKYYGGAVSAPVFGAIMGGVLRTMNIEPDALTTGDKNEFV

Row | Structure (SMILES) | EC50 [1] | MIC [2] | MIC [3] | MIC [4] | MIC [5] | MIC [6] | MIC [7] | MIC [8] | MIC [9] | MIC [10] | MIC [11] | MIC [12] | MIC [13] | P. aeruginosa PBP3 Potency [14]
1 | CCN1CCN(C(=O)NC(C(=O)N[C@H]2Cc3ccc(SC)c(C(=O)O)c3OB2O)c2csc(N)n2)C(=O)C1=O (stereo partly drawn) [Example 56, (3R)-3-(2-(2-aminothiazol-4-yl)-2-(4-ethyl-2,3-dioxopiperazine-1-carboxamido)acetamido)-2-hydroxy-7-(methylthio)-3,4-dihydro-2H-benzo[e][1,2]oxaborinine-8-carboxylic acid] | 30 to 500 µM | > 128 µg/mL | 8 to 16 µg/mL (≈ 13.9 to 27.8 µM) | 32 to 64 µg/mL (≈ 55.5 to 111 µM) | 0.5 to 1 µg/mL (≈ 0.867 to 1.73 µM) | 8 to 16 µg/mL (≈ 13.9 to 27.8 µM) | 8 to 16 µg/mL (≈ 13.9 to 27.8 µM) | > 128 µg/mL | 32 to 64 µg/mL (≈ 55.5 to 111 µM) | 32 to 64 µg/mL (≈ 55.5 to 111 µM) | 32 to 64 µg/mL (≈ 55.5 to 111 µM) | 0.5 to 1 µg/mL (≈ 0.867 to 1.73 µM) | 32 to 64 µg/mL (≈ 55.5 to 111 µM) | 
2 | CCN1CCN(C(=O)NC(C(=O)N[C@H]2Cc3ccc(O)c(C(=O)O)c3OB2O)c2ccccc2)C(=O)C1=O (stereo partly drawn) [Example 61, (3R)-3-(2-(4-ethyl-2,3-dioxopiperazine-1-carboxamido)-2-phenylacetamido)-2,7-dihydroxy-3,4-dihydro-2H-benzo[e][1,2]oxaborinine-8-carboxylic acid] |  | > 128 µg/mL | 8 to 16 µg/mL (≈ 15.3 to 30.5 µM) | 32 to 64 µg/mL (≈ 61 to 122 µM) | 8 to 16 µg/mL (≈ 15.3 to 30.5 µM) | 32 to 64 µg/mL (≈ 61 to 122 µM) | > 128 µg/mL | > 128 µg/mL | > 128 µg/mL | > 128 µg/mL | > 128 µg/mL | 0.5 to 1 µg/mL (≈ 0.954 to 1.91 µM) | 32 to 64 µg/mL (≈ 61 to 122 µM) | B (B represents a potency between 30 μM and 500 μM inclusive)
3 | CCN1CCN(C(=O)NC(C(=O)N[C@H]2Cc3ccc(C=NOCCN)c(C(=O)O)c3OB2O)c2csc(N)n2)C(=O)C1=O (stereo partly drawn) [Example 62, (3R)-7-(((2-aminoethoxy)imino)methyl)-3-(2-(2-aminothiazol-4-yl)-2-(4-ethyl-2,3-dioxopiperazine-1-carboxamido)acetamido)-2-hydroxy-3,4-dihydro-2H-benzo[e][1,2]oxaborinine-8-carboxylic acid] | > 500 µM | > 128 µg/mL | 32 to 64 µg/mL (≈ 51.9 to 104 µM) | > 128 µg/mL | 8 to 16 µg/mL (≈ 13 to 26 µM) | 32 to 64 µg/mL (≈ 51.9 to 104 µM) | > 128 µg/mL | > 128 µg/mL | > 128 µg/mL | > 128 µg/mL | > 128 µg/mL | 32 to 64 µg/mL (≈ 51.9 to 104 µM) | > 128 µg/mL | B (B represents a potency between 30 μM and 500 μM inclusive)
4 | CCN1CCN(C(=O)NC(C(=O)N[C@H]2Cc3ccc(C(F)(F)F)c(C(=O)O)c3OB2O)c2csc(N)n2)C(=O)C1=O (stereo partly drawn) [Example 63, (3R)-3-(2-(2-aminothiazol-4-yl)-2-(4-ethyl-2,3-dioxopiperazine-1-carboxamido)acetamido)-2-hydroxy-7-(trifluoromethyl)-3,4-dihydro-2H-benzo[e][1,2]oxaborinine-8-carboxylic acid] | > 500 µM | > 128 µg/mL | > 128 µg/mL | > 128 µg/mL | 8 to 16 µg/mL (≈ 13.4 to 26.7 µM) | > 128 µg/mL | > 128 µg/mL | > 128 µg/mL | > 128 µg/mL | > 128 µg/mL | > 128 µg/mL | 8 to 16 µg/mL (≈ 13.4 to 26.7 µM) | > 128 µg/mL | B (B represents a potency between 30 μM and 500 μM inclusive)
5 | CCN1CCN(C(=O)NC(C(=O)N[C@H]2Cc3ccc(SCC[N+]4(C)CCCC4)c(C(=O)O)c3OB2O)c2csc(N)n2)C(=O)C1=O.O=C([O-])C(F)(F)F (stereo partly drawn) [Example 65, 1-(2-(((3R)-3-(2-(2-aminothiazol-4-yl)-2-(4-ethyl-2,3-dioxopiperazine-1-carboxamido)acetamido)-8-carboxy-2-hydroxy-3,4-dihydro-2H-benzo[e][1,2]oxaborinin-7-yl)thio)ethyl)-1-methylpyrrolidin-1-ium 2,2,2-trifluoroacetate] | > 500 µM | > 128 µg/mL | > 128 µg/mL | > 128 µg/mL | 8 to 16 µg/mL | 32 to 64 µg/mL | > 128 µg/mL | > 128 µg/mL | > 128 µg/mL | > 128 µg/mL | > 128 µg/mL | 32 to 64 µg/mL | > 128 µg/mL | 
6 | CCN1CCN(C(=O)NC(C(=O)N[C@H]2Cc3ccc(SCCNCCN)c(C(=O)O)c3OB2O)c2csc(N)n2)C(=O)C1=O (stereo partly drawn) [Example 66, (3R)-7-((2-((2-aminoethyl)amino)ethyl)thio)-3-(2-(2-aminothiazol-4-yl)-2-(4-ethyl-2,3-dioxopiperazine-1-carboxamido)acetamido)-2-hydroxy-3,4-dihydro-2H-benzo[e][1,2]oxaborinine-8-carboxylic acid] | > 500 µM | > 128 µg/mL | 32 to 64 µg/mL (≈ 49.3 to 98.7 µM) | > 128 µg/mL | 8 to 16 µg/mL (≈ 12.3 to 24.7 µM) | 32 to 64 µg/mL (≈ 49.3 to 98.7 µM) | > 128 µg/mL | > 128 µg/mL | > 128 µg/mL | > 128 µg/mL | > 128 µg/mL | 32 to 64 µg/mL (≈ 49.3 to 98.7 µM) | > 128 µg/mL | 
7 | CCN1CCN(C(=O)NC(C(=O)N[C@H]2Cc3ccc(SCCN)c(C(=O)O)c3OB2O)c2csc(N)n2)C(=O)C1=O (stereo partly drawn) [Example 67, (3R)-7-((2-aminoethyl)thio)-3-(2-(2-aminothiazol-4-yl)-2-(4-ethyl-2,3-dioxopiperazine-1-carboxamido)acetamido)-2-hydroxy-3,4-dihydro-2H-benzo[e][1,2]oxaborinine-8-carboxylic acid] | 30 to 500 µM | > 128 µg/mL | 8 to 16 µg/mL (≈ 13.2 to 26.4 µM) | 32 to 64 µg/mL (≈ 52.9 to 106 µM) | 0.5 to 1 µg/mL (≈ 0.826 to 1.65 µM) | 32 to 64 µg/mL (≈ 52.9 to 106 µM) | 32 to 64 µg/mL (≈ 52.9 to 106 µM) | > 128 µg/mL | 32 to 64 µg/mL (≈ 52.9 to 106 µM) | > 128 µg/mL | 32 to 64 µg/mL (≈ 52.9 to 106 µM) | 0.5 to 1 µg/mL (≈ 0.826 to 1.65 µM) | > 128 µg/mL | 
